Assay results as given in article PMC7352759, “S(+)-(2E)-N-(2-Hydroxypropyl)-3-Phenylprop-2-Enamide (KM-568): A Novel Cinnamamide Derivative with Anticonvulsant Activity in Animal Models of Seizures and Epilepsy” (International Journal of Molecular Sciences, 2020).

How the values were obtained:
[1] = Ames microplate format (MPF) assay, TA1537; conditions: Salmonella typhimurium
From the text: The Ames microplate format (MPF) mutagenicity assay (Xenometrix, Allschwil, Switzerland) was used to test KM-568 mutagenicity. Growth, exposure, and indicator media, positive control chemicals, and four Salmonella typhimurium strains TA98, TA100, TA1535 and TA1537 were included in the kit. TA100 and TA1535 strains detect base substitution mutations, whereas TA98 and TA1537 indicate frameshift mutations. The strains of bacteria included in a kit are in compliance with the Organization for Economic Cooperation and Development (OECD) 471 Guideline for Testing of Chemicals.
The assay is a liquid microplate modification of the traditional Salmonella test. During the procedure, bacteria are exposed to different concentrations of a test compound for 90 min in a medium containing sufficient histidine to support cell divisions. Then, the cultures are diluted in a pH indicator medium lacking histidine and aliquoted into 48 wells of a 384-well plate. Within 2 days, bacteria that have undergone reversion to amino acid prototrophy will form colonies. Products of bacteria metabolism reduce pH of the medium, changing the color of wells from purple to yellow.
The test procedure provided by Xenometrix and described in detail elsewhere was followed. Bacterial strains were grown overnight (14–16 h) in exposure medium in a shaker incubator and then exposed to KM-568 in 24-well plates for 90 min at 37 °C with agitation. Final KM-568 concentrations in the assay were 0.1, 0.2, and 0.5 mM. After preincubation, the cultures were diluted in the indicator medium and the contents of each 24-well culture were transferred to 48 wells on a 384-well plate and incubated further for 48 h at 37 °C without agitation. After the exposure, the number of wells containing bacteria was scored for yellow wells. […] Pure DMSO was used as a negative control. All doses were performed in triplicate.
The fold increase of revertants relative to the solvent control was determined by dividing the mean number of positive wells at each dose by the solvent control at baseline. The solvent control at baseline was calculated as the mean number of positive wells in the solvent control plus one standard deviation (SD). When an increase of more than twofold relative to the baseline at more than one dose with a dose–response was observed, the sample was classified as positive, whereas when no response > 2 times the baseline and no dose–response was stated, the sample was classified as negative.

[2] = tested on: rat cerebral cortex NMDA receptor; test: NMDA receptor radioligand binding ([3H]CGP39653); conditions: 10 µM; antagonist radioligand
Procedure: In order to identify molecular mechanism of action, KM-568 was tested at 10 µM in three radioligand binding assays: rat cerebral cortex GABA receptor non-selective agonist radioligand, AMPA (α-amino-3-hydroxy-5-methyl-4-isoxazolepropionic acid) receptor agonist radioligand, and NMDA (N-methyl-D-aspartate) receptor antagonist radioligand as well as one functional assay involving a human recombinant TRPV1 receptor expressed in CHO cells (agonist and antagonist effects).
Tests were performed by Eurofins Cerep (Eurofins CEREP SA, Celle-Lévescault, France) as a commercial service. In radioligand assays, rat cerebral cortex GABA receptor as well as rat cerebral cortex AMPA (α-amino-3-hydroxy-5-methyl-4-isoxazolepropionic acid) and NMDA (N-methyl-D-aspartate) receptors with 10 nM [^3H]GABA, 8 nM [^3H]AMPA, and 5 nM [^3H]CGP39653, respectively, were used. The results were detected by means of scintillation counting. In functional assays, a human recombinant TRPV1 receptor expressed in Chinese hamster ovary (CHO) cells with 1 µM capsaicin or 30 nM capsazepine were used. Fluorimetry was used as a detection method.

CF-1 mice = test: Intravenous metrazol seizure threshold test (ivMET); assay type: in vivo; conditions: 0.25 h, mean ± SEM; for Time to clonus / Time to twitch: ten animals
Procedure: Then, 0.5% metrazol solution was then infused at a previously determined time-to-peak effect (0.25 h). The infusion was done at a constant rate of 0.34 mL/min through a tube cannulating a lateral tail vein of a test animal. The time from the start of the infusion to the appearance of the first twitch (time to twitch in sec) and the onset of sustained clonus (time to clonus in sec) were recorded. These times were also converted to the dose of metrazol (in mg/kg) causing first twitch and clonus.

[3] = tested on: Frings audiogenic seizure-susceptible mice; test: Frings audiogenic seizure-susceptible mouse model; assay type: in vivo; conditions: 0.25 h; for Results (protected/tested animals): Frings mice, i.p.
Procedure: Frings audiogenic seizure-susceptible mice are genetically susceptible to sound-induced reflex seizures. Mice (18–25 g) were administered i.p. compound KM-568 at the doses in the range of 10.0–17.5 mg/kg. Fifteen minutes later, an individual mouse was placed in a round plexiglass jar (15 cm diameter, 18 cm high) and exposed to a sound stimulus of 110 decibels (11 kHz) delivered for 20 sec.

mice = test: Formalin test of hyperalgesia; assay type: in vivo; conditions: 44 mg/kg i.p.; for Reduction of time of licking of the affected paw: not statistically significant; for AUC % Control: vs methylcellulose
Procedure: 0.05% formalin was injected subdermal to the hindpaws of mice, which caused licking. In the tested group (n = 8), KM-568 was administered intraperitoneally 0.25 h prior to formalin at the dose of 44 mg/kg. In the control group, methylcellulose was used. Animals were then observed for the first 2 min of each 5 min for a total of 40 min. The cumulative duration of licking (in sec) during each 2-min recording period was measured for analysis across compound and vehicle-pretreated groups.

rats = test: Pilocarpine-induced status epilepticus model; assay type: in vivo
Procedure: Compound KM-568 was tested in rats at the doses in the range 200–400 mg/kg i.p. in a pilocarpine-induced status epilepticus model. After administration of pilocarpine, at the time point when a convulsive effect of at least level 3 in the Racine scale was noted (time 0 h) and 0.5 h afterwards (time 0.5 h), KM-568 was administered intraperitoneally at a certain dose.
Pilocarpine was administered intraperitoneally into rats at the dose of 50 mg/kg. Each animal was being observed. The time point when the convulsive effect at the level of at least 3 in the Racine scale was noted (time 0 h), and, 0.5 h (time 0.5 h) afterwards, KM-568 was administered.

C[C@H](O)CNC(=O)/C=C/c1ccccc1 [KM-568, S(+)-(2E)-N-(2-hydroxypropyl)-3-phenylprop-2-enamide]
fold induction at 90 min, 0.1 mM [1]: 1
fold induction at 90 min, 0.2 mM [1]: 0.7
fold induction at 90 min, 0.5 mM [1]: 0.7
Effect in NMDA receptor radioligand binding assay [2]: No significant effects
Clonus (calculated metrazol dose causing clonus) (CF-1 mice; 44 mg/kg i.p.): 50.8 ± 3.5 mg/kg
Twitch (calculated metrazol dose causing first twitch) (CF-1 mice; 44 mg/kg i.p.): 37.8 ± 1.4 mg/kg
Time to clonus (CF-1 mice; 44 mg/kg i.p.): 48.2 ± 3.5 s
Time to twitch (CF-1 mice; 44 mg/kg i.p.): 35.8 ± 1.5 s
Clonus (calculated metrazol dose causing clonus) (CF-1 mice; 148 mg/kg i.p.): 80.2 ± 3.2 mg/kg
Twitch (calculated metrazol dose causing first twitch) (CF-1 mice; 148 mg/kg i.p.): 61.3 ± 2.2 mg/kg
Time to clonus (CF-1 mice; 148 mg/kg i.p.): 75.9 ± 2.9 s
Time to twitch (CF-1 mice; 148 mg/kg i.p.): 57.9 ± 1.6 s
Results (protected/tested animals) ([3]; 10.0 mg/kg): 1/8
Results (protected/tested animals) ([3]; 12.5 mg/kg): 3/8
Results (protected/tested animals) ([3]; 15.0 mg/kg): 6/8
Results (protected/tested animals) ([3]; 17.5 mg/kg): 7/8
ED50 ([3]; Mus musculus, ip): 13.2 mg/kg
AUC (total area under curve, time of licking) (mice; acute phase): 184.18
Reduction of time of licking of the affected paw (mice; acute phase): 24%
AUC % Control (mice; acute phase): 76.37 % Control
AUC (total area under curve, time of licking) (mice; inflammatory phase): 556.81
Reduction of time of licking of the affected paw (mice; inflammatory phase): 32%
AUC % Control (mice; inflammatory phase): 67.96 % Control
ED50 (rats; Rattus norvegicus, ip, 0.5 h, given at time 0.5 h): 297 mg/kg
Results (protected/tested animals) (rats; i.p., 200 mg/kg, given at time 0 h): 8/8
Results (protected/tested animals) (rats; i.p., 200 mg/kg, given at time 0.5 h): 1/8
Results (protected/tested animals) (rats; i.p., 300 mg/kg, given at time 0.5 h): 5/8
Results (protected/tested animals) (rats; i.p., 400 mg/kg, given at time 0.5 h): 7/8
ED50, pilocarpine-induced status epilepticus (rats; i.p., given at time 0.5 h): 279.45 (212.61–344.62) mg/kg
ED97, pilocarpine-induced status epilepticus (rats; i.p., given at time 0.5 h): 498.2 (378.3–1526.9) mg/kg
